Data as given in PMC7195332 (Bioorganic & Medicinal Chemistry Letters, 2019).

Key:
[1] = target: Recombinant human Cyclophilin D protein (amino acids 44-207, K175I) (Homo sapiens, UniProt P30405, K175I); experiment: CypD SPR binding assay; conditions: for CypD LE (ligand binding efficiency based on the SPR KDs): fragment hits; for SPR binding CypD LE: ligand binding efficiency based on SPR KDs
[2] = target: CypD (30-207 aa, human recombinant) (Homo sapiens, UniProt P30405); experiment: Cyclophilin D biochemical FP assay; format: binding; conditions: for Biochemical CypD FP assay LE: ligand binding efficiency based on biochemical FP IC50s
Chain of CypD (30-207 aa, human recombinant) (P30405 30-207): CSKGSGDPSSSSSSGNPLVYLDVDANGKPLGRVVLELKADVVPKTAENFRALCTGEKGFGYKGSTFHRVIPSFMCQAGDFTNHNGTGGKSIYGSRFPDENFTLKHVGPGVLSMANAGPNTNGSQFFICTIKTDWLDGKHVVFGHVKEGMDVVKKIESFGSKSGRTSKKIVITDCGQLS

Chain of Recombinant human Cyclophilin D protein (amino acids 44-207, K175I) (P30405 44-207 K175I): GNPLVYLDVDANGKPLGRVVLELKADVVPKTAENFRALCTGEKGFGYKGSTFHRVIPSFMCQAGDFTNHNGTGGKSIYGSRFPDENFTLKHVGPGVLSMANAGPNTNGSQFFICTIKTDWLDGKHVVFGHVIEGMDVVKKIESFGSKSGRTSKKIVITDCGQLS

SMILES	IC50 [2] [µM]	SPR binding CypD LE [1]	also measured
O[C@@H]1CO[C@@H]2C[C@H]1Nc1ccc(F)cc12 [compound 3]			CypD LE (ligand binding efficiency based on the SPR KDs) [1]: 0.2
CCN1Cc2cc3c(cc2NCCC1=O)OCO3 [compound 4]			CypD LE (ligand binding efficiency based on the SPR KDs) [1]: 0.16
CCn1nnc(NC(=O)c2ccccc2)n1 [compound 6]			CypD LE (ligand binding efficiency based on the SPR KDs) [1]: 0.21
O=C(NCc1ccccn1)C(=O)NC1CCCC1 [compound 8]			CypD LE (ligand binding efficiency based on the SPR KDs) [1]: 0.22
CSc1ccccc1[C@H]1CCCN1C(=O)CN(C)C(=O)NCc1ccc2c(c1)[C@H]1C[C@@H](N2)[C@H](O)CO1 [compound 18]	10		
CSc1ccccc1[C@H]1CCCN1C(=O)CNC(=O)CCc1ccc2c(c1)[C@@H]1C[C@H](N2)[C@H](O)CO1 [compound 19]	54		
CCN1Cc2cc(CNC(=O)NCC(=O)N3CCC[C@@H]3c3ccccc3SC)ccc2NCCC1=O [compound 20]	0.19	0.25	
CCN1Cc2cc(NC(=O)NCC(=O)N3CCC[C@@H]3c3ccccc3SC)ccc2NCCC1=O [compound 21]	> 100	0.13	
CCN1Cc2cc(CCC(=O)NCC(=O)N3CCC[C@@H]3c3ccccc3SC)ccc2NCCC1=O [compound 22]	4.1	0.21	Biochemical CypD FP assay LE [2]: 0.21
O=C(NCc1ccc2c(c1)[C@@H]1C[C@H](N2)[C@H](O)CO1)C(=O)N1CCCC1 [compound 30]		0.19	Biochemical CypD FP assay LE [2]: 0.16
O=C(NCc1ccc2c(c1)[C@@H]1C[C@H](N2)[C@H](O)CO1)C(=O)NC1CCCC1 [compound 30]	870		Kd [1]: 217 µM
CSc1ccccc1[C@H]1CCCN1C(=O)C(=O)NCc1ccc2c(c1)[C@H]1C[C@@H](N2)[C@H](O)CO1 [compound 31]	> 100	0.16	
CCN1Cc2cc(CNC(=O)CN3C(=O)[C@@H]4[C@H]5CC[C@H](C5)[C@@H]4C3=O)ccc2NCCC1=O [compound 34]	80		Kd [1]: 51 µM; Biochemical CypD FP assay LE [2]: 0.18
CCN1Cc2cc(NC(=O)CN3C(=O)C4C(C3=O)[C@H]3CC[C@@H]4C3)ccc2NCCC1=O (stereo partly drawn) [compound 35]	> 1000		
O=C(CN1C(=O)C2C3CCC(C3)C2C1=O)NCc1ccc2c(c1)CCCN2 (stereo not drawn) [compound 38]			potency improvement compared with 36 [2]: 2 fold

The next lines start with results.

IC50 [2] [µM]	SPR binding CypD LE [1]	SMILES	also measured
0.75		CSc1ccccc1[C@H]1CCCN1C(=O)CNC(=O)NCc1ccc(N)cc1 [compound 2, reference compound]	Kd [1]: 0.23 µM
> 100	0.12	CCN1Cc2cc(CCC(=O)NCCC(=O)N3CCC[C@@H]3c3ccccc3SC)ccc2NCCC1=O [compound 23]	
> 100		O=C(NCc1ccc2c(c1)[C@H]1C[C@@H](N2)[C@H](O)CO1)C(=O)N1CCCC1 [compound 29]	Kd [1]: > 1500 µM
> 30		CSc1ccccc1[C@@H]1CCCN1C(=O)C(=O)NCc1ccc2c(c1)[C@H]1C[C@@H](N2)[C@H](O)CO1 [compound 32]	
490		Nc1ccc(CCNC(=O)CN2C(=O)C3C4CCC(C4)C3C2=O)cc1 (stereo not drawn) [compound 37]	Biochemical CypD FP assay LE [2]: 0.18
1.7	0.26	O=C(CN1C(=O)[C@@H]2[C@@H]3CC[C@@H](C3)[C@@H]2C1=O)NCc1ccc2c(c1)[C@H]1C[C@@H](N2)[C@H](O)CO1 [compound 39]	Biochemical CypD FP assay LE [2]: 0.26
0.735	0.25	O=C(CN1C(=O)[C@@H]2[C@H]3CC[C@H](C3)[C@@H]2C1=O)NCc1ccc2c(c1)[C@H]1C[C@@H](N2)[C@H](O)CO1 [compound 40, 2-(exo-3,5-Dioxo-4-aza-tricyclo[5.2.1.02,6]dec-4-yl)-N-((1R,9R,10S)-10-hydroxy-12-oxa-8-aza-tricyclo[7.3.1.02,7]trideca-2(7),3,5-trien-4-ylmethyl)-acetamide]	Biochemical CypD FP assay LE [2]: 0.27
